Reference: patent US8927579B2, “Male contraceptive” (priority 2007, dated 2015)
Counter-ions that a name gives are not always drawn.

What was measured:
[1] = tested on: circular muscle of human vas deferens; assay: IC50 against contractions evoked by high K+ (120 mM) in the presence of FPL 64176, circular muscle rings; settings: contractions evoked by K+ (120 mM) in the presence of FPL 64176 (1 μM), means ± S.E.M.
Description: (§1) Human vas deferens specimens were obtained after elective vasectomies of healthy fertile men. College ethical approval and the consent of patients were obtained. The specimens were placed in ice-cold Krebs' medium, dissected-free of connective tissue/blood vessels and cut longitudinally into strips (longitudinal muscle preparations; 5-10 mm long & 1 mm wide) or transversely into rings (circular muscle preparations; 3 mm in length). The longitudinal and circular muscle preparations were then set up for tension recording (resting tension 5-7 mN) in a Perspex chamber superfused at 2 ml per min with Krebs' medium (36° C.) composed of (mM): NaCl, 118.8; NaHCO3, 25; KCl, 4.7; CaCl2.2H2O, 2.5; KH2PO4, 1.2; MgSO4.7H2O, 1.2; glucose, 11.1; ascorbic acid 0.1 and continuously gassed with 95% O2 and 5% CO2. Contractile responses were recorded via a Harvard-type force-displacement transducer. The analog signals were digitised using CIO-Das 16/Jr data acquisition software (Amplicon Liveline, Brighton, UK) and re-plotted on a microcomputer.
(§2) Tissues were equilibrated for 180 min in Krebs' medium containing inhibitors of extraneuronal and neuronal reuptake of noradrenaline, oestradiol (1 μM) and desipramine (0.1 μM) respectively, inhibitors of catechol-O-methyltransferase and monoamine oxidase, tropolone (10 μM) and iproniazid (10 μM) respectively and the β-adrenoceptor blocker, propranolol (1 μM). At the end of the equilibration period, the tissues were stimulated with noradrenaline (100 μM). […] After a contact time of 30-40 min in this medium, different experimental protocols (described below) were adopted in order to • (a) Elucidate the contractile actions of L-type Ca^2+ agonists such as FPL 64176 or Bay K 8644. In these experiments, tissues were exposed to FPL 64176 (0.1-10 μM added cumulatively) or in separate experiments Bay K 8644 (0.1-10 μM added cumulatively). • (b) Investigate the effects of various diphenylalkylamines and conventional L-type Ca^2+ antagonists (methoxyverapamil or nifedipine) on contractions evoked by high concentrations of extracellular potassium (high [K^+]o) in the presence of L-type Ca^2+ agonists, FPL 64176 (1 μM) or Bay K 8644 (1 μM). In this protocol, tissues were stimulated with high [K^+]O (10, 30 and 120 mM at 10-15 min intervals) in normal Krebs' medium, then exposed to L-type Ca^2+ agonists for 20-30 min and subsequently stimulated with high [K^+]O (10, 30 and 120 mM) in the presence of the drugs. These provided the initial responses. Following this and in the continuous presence of the L-type Ca^2+ agonists, the tissues were exposed additionally to L-type Ca^2+ antagonists (conventional or diphenylalkylamines) or drug-free vehicle medium. After contact times of 25-50 min the tissues were stimulated, first with high [K^+]O (either 30 mM or 120 mM) in order to take account of the well-documented use-dependent action of the diphenylalkylamine Ca^2+ antagonists. Following recovery from the test contraction and after a further 30-40 min, the tissues were then stimulated with high [K^+]o (10, 30 and 120 mM). This protocol is illustrated in FIGS. 3 and 4. The resulting contractions were measured (see below) and expressed as a percentage of corresponding initial responses to high [K^+]o evoked in the presence of L-type Ca^2+ agonists (i.e. before exposure to L-type Ca^2+ antagonists). […] Subsequent analysis (see below) was between contractions of drug-treated tissues and time-matched controls • (c) Determine the inhibitory potencies (IC50 values) of various diphenylalkylamines and phenothiazines and conventional L-type Ca^2+ antagonists (nifedipine and methoxyverapamil) against contractions evoked in longitudinal and circular muscle of human vas deferens by high [K^+]o (120 mM) in the presence of FPL 64176. In these experiments, tissues were stimulated with high [K^+]o (120 mM); sequentially in normal Krebs' medium and after 25-30 min exposure to the L-type Ca^2+ agonist, FPL 64176, (1 μM, Initial response). […]

[2] = tested on: longitudinal muscle of human vas deferens; assay: IC50 against contractions evoked by high K+ (120 mM) in the presence of FPL 64176, longitudinal muscle strips; settings: contractions evoked by K+ (120 mM) in the presence of FPL 64176 (1 μM), means ± S.E.M.
Description: as §1, §2

[3] = tested on: sperm emission in patients; settings: cited from earlier work
[4] = tested on: longitudinal muscle of human vas deferens; assay: Contractile actions of L-type Ca2+ agonists, longitudinal muscle
Description: as §1, §2

[5] = tested on: circular muscle of human vas deferens; assay: Contractile actions of L-type Ca2+ agonists, circular muscle
Description: as §1, §2

[6] = tested on: longitudinal muscle of human vas deferens; assay: New molecules against contractions to high K+ (120 mM), longitudinal muscle
Description: as §1, with “preparations; 5-8” for “preparations; 5-10”, “preparations; ˜3” for “preparations; 3”, “a Harvard type” for “a Harvard-type”
(§3) Tissues were equilibrated for 180 min in Krebs' medium containing inhibitors of extraneuronal and neuronal reuptake of noradrenaline, oestradiol (1 μM) and desipramine (0.1 μM) respectively, inhibitors of catechol-O-methyltransferase and monoamine oxidase, tropolone (10 μM) and iproniazid (10 μM) respectively and the β-adrenoceptor blocker, propranolol (1 μM). At the end of the equilibration period, the tissues were stimulated with noradrenaline (100 μM). […] After 40-45 min in this medium the tissues were stimulated with high [K^+]O (120 mM, Initial response). This was followed by exposure to cumulative concentrations of the new molecules {NIBA(1)XC1, NIBA(14)XN10, NIBA(6)XN3, NIBA(2)XC2, NIBA(53)XN16} or to Krebs' medium containing drug vehicles (time-matched controls). After contact times of 40-60 min at each drug concentration, the tissues were stimulated with high [K^+]o (120 mM). The resulting contractions were measured using computer software developed in-house to measure the total response (i.e. rhythmic activity plus tonic contraction). Contractions obtained in the presence of the new drug molecules were expressed as a percentage of the initial contraction evoked by high [K^+]o (120 mM) before exposure to the drugs.

[7] = tested on: circular muscle of human vas deferens; assay: New molecules against contractions to high K+ (120 mM), circular muscle; settings: contractions evoked by K+ (120 mM), preliminary data, mean, n=2-3, read-out: Functional inhibitory potencies (IC50 values), Circular muscle
Description: as §1, with “preparations; 5-8” for “preparations; 5-10”, “preparations; ˜3” for “preparations; 3”, “a Harvard type” for “a Harvard-type”
as §3

[8] = tested on: circular muscle of human vas deferens; assay: Inhibition at fixed concentration of contractions evoked by high K+ in the presence of FPL 64176, circular muscle; settings: drug 10 μM
Description: as §1
(§4) Tissues were equilibrated for 180 min in Krebs' medium containing inhibitors of extraneuronal and neuronal reuptake of noradrenaline, oestradiol (1 μM) and desipramine (0.1 μM) respectively, inhibitors of catechol-O-methyltransferase and monoamine oxidase, tropolone (10 μM) and iproniazid (10 μM) respectively and the β-adrenoceptor blocker, propranolol (1 μM). At the end of the equilibration period, the tissues were stimulated with noradrenaline (100 μM). […] After a contact time of 30-40 min in this medium, different experimental protocols (described below) were adopted in order to • (a) Elucidate the contractile actions of L-type Ca^2+ agonists such as FPL 64176 or Bay K 8644. In these experiments, tissues were exposed to FPL 64176 (0.1-10 μM added cumulatively) or in separate experiments Bay K 8644 (0.1-10 μM added cumulatively). • (b) Investigate the effects of various diphenylalkylamines and conventional L-type Ca^2+ antagonists (methoxyverapamil or nifedipine) on contractions evoked by high concentrations of extracellular potassium (high [K^+]o) in the presence of L-type Ca^2+ agonists, FPL 64176 (1 μM) or Bay K 8644 (1 μM). In this protocol, tissues were stimulated with high [K^+]O (10, 30 and 120 mM at 10-15 min intervals) in normal Krebs' medium, then exposed to L-type Ca^2+ agonists for 20-30 min and subsequently stimulated with high [K^+]O (10, 30 and 120 mM) in the presence of the drugs. These provided the initial responses. Following this and in the continuous presence of the L-type Ca^2+ agonists, the tissues were exposed additionally to L-type Ca^2+ antagonists (conventional or diphenylalkylamines) or drug-free vehicle medium. After contact times of 25-50 min the tissues were stimulated, first with high [K^+]O (either 30 mM or 120 mM) in order to take account of the well-documented use-dependent action of the diphenylalkylamine Ca^2+ antagonists. Following recovery from the test contraction and after a further 30-40 min, the tissues were then stimulated with high [K^+]o (10, 30 and 120 mM). This protocol is illustrated in FIGS. 3 and 4. The resulting contractions were measured (see below) and expressed as a percentage of corresponding initial responses to high [K^+]o evoked in the presence of L-type Ca^2+ agonists (i.e. before exposure to L-type Ca^2+ antagonists). […]

[9] = tested on: longitudinal muscle of human vas deferens; assay: Inhibition at fixed concentration of contractions evoked by high K+ in the presence of FPL 64176, longitudinal muscle; settings: drug 10 μM
Description: as §1
as §4, with “Following this and in the continuous presence of the L-type Ca^2+ agonists, the tissues were exposed additionally to L-type Ca^2+ antagonists (conventional or diphenylalkylamines) or drug-free vehicle medium. After contact times of 25-50 min the tissues were stimulated, first with high [K^+]O (either 30 mM or 120 mM) in order to take account of the well-documented use-dependent action of the diphenylalkylamine Ca^2+ antagonists. Following recovery from the test contraction and after a further 30-40 min, the tissues were then stimulated with high [K^+]o (10, 30 and 120 mM). This protocol is illustrated in FIGS. 3 and 4.” left out

[10] = [K+]o 30 mM & 120 mM in the continuous presence of agonist 1.0 μM
[11] = agonist 0.1-3 μM, brief exposure
[12] = Homo sapiens, [K+]o 120 mM in the presence of FPL 64176
[13] = [K+]o 30 mM in the presence of FPL 64176 (1.0 μM)

With CN1CCCCC1CCN1c2ccccc2Sc2ccc(S(C)(=O)=O)cc21 (stereo not drawn) [Sulphoridazine, sulphoridazine] the IC50 [1] was 14.1 ± 4.9 µM and the IC50 [2] was 15.9 ± 2.9 µM.
For CSc1ccc2c(c1)N(CCC1CCCCN1C)c1ccccc1S2 (stereo not drawn) [Thioridazine, thioridazine hydrochloride], the “time to inhibition of sperm emission after drug administration” value ([3]; even at sub therapeutic doses) is given as at most 24 h.
For COC(=O)c1c(C)[nH]c(C)c1C(=O)c1ccccc1Cc1ccccc1 [FPL 64176, 2,5-dimethyl-4-[2-(phenylmethyl)benzoyl]-H-pyrrole-3-carboxylic acid methyl ester], the “contractions on second exposure to [K+]o, percentage of corresponding initial responses, longitudinal muscle” value [4, 10] was 160-181%, the “response of longitudinal muscle to higher concentration of L-type Ca2+ agonist” value ([4]; agonist 10 μM) was “rhythmic contractility” and the “response of longitudinal muscle to brief exposure to L-type Ca2+ agonist” value [4, 11] was “quiescent”. The “contractions on second exposure to [K+]o, percentage of corresponding initial responses, circular muscle” value [5, 10] was 270-300%, the “response of circular muscle to higher concentration of L-type Ca2+ agonist” value ([5]; agonist 10 μM) was “rhythmic contractility” and the “response of circular muscle to brief exposure to L-type Ca2+ agonist” value [5, 11] was “quiescent”.
Compound CN(C)CCCN1c2ccccc2Sc2ccc(Cl)cc21 [Chlorpromazine, chlorpromazine hydrochloride] has an IC50 ([1]; Homo sapiens) of 18.3 ± 6 µM and an IC50 ([2]; Homo sapiens) of 12.4 ± 2.9 µM.
With CC1CCCCN1CCC(c1ccccc1)c1ccccc1 (stereo not drawn) [NIBA(2)XC2] the IC50 ([6]; Homo sapiens, contractions evoked by K+ (120 mM), preliminary data, mean, n=2-3, read-out: Functional inhibitory potencies (IC50 values), Longitudinal muscle) was 3 µM, the “relative effectiveness against longitudinal and circular muscle contractions” value ([6]; contractions evoked by high [K+]o) was “more effective against longitudinal than circular muscle contractions” and the “Selectivity [(C/L)-1]” value ([6]; longitudinal muscle selectivity from IC50 values in circular and longitudinal muscle, K+ (120 mM)) was 2.69. It also gave an IC50 [7] of 11.1 µM.
In the case of Fc1ccc(C(c2ccc(F)cc2)N2CCN(C/C=C/c3ccccc3)CC2)cc1 [Flunarizine, flunarizine dihydrochloride], the inhibition at 10 µM [8, 12] is reported as 40 to 44%, the “inhibition of circular muscle contractions compared to time-matched controls” value [8, 13] is reported as 20-30% and the inhibition at 10 µM [9, 12] is reported as 40 to 44%. For the same compound, the “inhibition of longitudinal muscle contractions compared to time-matched controls” value [9, 13] was 20-30%.
For CC(COc1ccccc1)N(CCCl)Cc1ccccc1 (stereo not drawn) [PBZ, phenoxybenzamine], the “effect on sperm emission (contraceptive side effect)” value ([3]; clinical studies) is given as “reversibly inhibit sperm emission” and the “effects on libido, erection, orgasmic sensation, blood pressure, hormonal balance” value ([3]; clinical studies) is given as “without effects on libido, penile erection, orgasmic sensation and more importantly blood pressure or hormonal balance”.
